Source: patent US10688122B2, “Thiol and disulfide-containing agents for increasing meibomian gland lipid secretion” (Azura Ophthalmics Ltd., priority 2015, dated 2020)

Tested on: Sebocytes SEBO662 (3D epithelium)
Assay: Lipid synthesis/accumulation in 3D model culture of Sebocytes (Oil-red-O staining, lipid droplet surface area)
Format: cell-based, human
Details: for lipid accumulation, % of the control / stimulation of lipid accumulation (in words): 14 days incubation, 3D Sebocytes; for lipid accumulation, % of the control: Oil-red-O lipid droplet surface area; for effect on lipid synthesis in the 3D Sebocytes model (conclusion, in words): overall conclusion, no concentration stated
Text: Since secretory cells (meibocytes) of meibomian glands, share similarities with that of the secretory cells (sebocytes) of sebaceous glands, as can be validated from their similar structure, similar function and their joint embryologic development (Knop 2011_IOVS) the effect of Thiol containing Lipids on lipid production can be evaluated in a 3D model culture of Sebocytes. See also: Barrault 2012, Immortalized sebocytes can spontaneously differentiate into a sebaceous-like phenotype when cultured as a 3D epithelium, Exp. Derm, 21:299-319
The effect of different compounds on lipid synthesis was evaluated, in a 3D model culture of Sebocytes. Drug candidates were drugs containing S—H or disulfide: Selenium disulfide (SeS2 dispersed in CarboxymethylCellulose—CMC) as a positive control, Selenocysteine, Captopril, Disulfiram and lipids containing S—H or disulfide: Thioethanol, 12-Mercaptododecanoic acid. Since Sebocytes differentiation is associated with increased lipid synthesis and accumulation, evaluation of proliferation and differentiation was done by quantifying lipid accumulation in the 3D Sebocytes culture (human cell line—SEBO662). Lipid accumulation was evaluated by lipid staining with Oil red staining.
Sebocytes SEBO662 were cultured into a three dimension (3D) epithelium and differentiated to a sebaceous-like phenotype. The Sebocytes were treated or not (control) with the test compounds and incubated for 14 days. All experiments were performed 3 times. After incubation, tissues were snap-frozen. Formaldehyde-fixed cryo sections were stained using an Oil-red-O solution and counterstained using haematoxylin. For each test condition, the sections were observed using a light microscope equipped with a camera. Five pictures were taken per replicate, making 15 values per treatment condition. The lipid content in each sample was quantified by calculation of the lipid droplet surface area. Quantitative comparison of all data points between lipid's droplet surface area of tested compounds versus control was performed

| SMILES | lipid accumulation, % of the control (0.1 μM) [%] | lipid accumulation, % of the control (1 μM) [%] | effect on lipid synthesis in the 3D Sebocytes model (conclusion, in words) | lipid accumulation, % of the control (10 μM) [%] | lipid accumulation, % of the control (100 μM) [%] | stimulation of lipid accumulation (in words) (1000 μM) | lipid accumulation, % of the control (0.01 μM) [%] | stimulation of lipid accumulation (in words) (10 μM) |
| --- | --- | --- | --- | --- | --- | --- | --- | --- |
| O=C(O)CCCCCCCCCCCS [12-Mercaptododecanoic acid] | 385 | 349 | significant stimulating effect | – | – | – | – | – |
| C[C@H](CS)C(=O)N1CCC[C@H]1C(=O)O [Captopril] | – | 240 | significant stimulating effect | 173 | – | – | – | – |
| CCN(CC)C(=S)SSC(=S)N(CC)CC [Disulfiram] | – | – | significant stimulating effect | – | 199 | no stimulation effect | – | – |
| S=[Se]=S [Selenium disulfide] | 348 | – | significant stimulating effect | – | – | – | 282 | – |
| N[C@@H](C[SeH])C(=O)O [Selenocysteine] | – | 296 | significant stimulating effect | – | – | – | – | no stimulation effect |
| OCCS [Thioethanol] | 251 | 228 | significant stimulating effect | – | – | – | – | – |
